According to US20180057505A1, “BICYCLIC HETEROARYL COMPOUNDS USEFUL AS INHIBITORS OF THE PAR-2 SIGNALING PATHWAY” (VERTEX PHARMACEUTICALS INCORPORATED, priority 2015, published 2018):

Columns and labels:
Assay type in all cases: cell-based
PAR2 (HT-29 cells) [1] = molecular target: T1, PAR2 (HT-29 cells) (Homo sapiens, UniProt P55085); test: Ca FLIPR TETRA assay, ANTAGONIST mode, activator 8 μM SLIGKV; settings: HT-29 cells, activator 8 μM SLIGKV
T1 construct: host or cells: HT-29
T1 sequence (P55085 26-397): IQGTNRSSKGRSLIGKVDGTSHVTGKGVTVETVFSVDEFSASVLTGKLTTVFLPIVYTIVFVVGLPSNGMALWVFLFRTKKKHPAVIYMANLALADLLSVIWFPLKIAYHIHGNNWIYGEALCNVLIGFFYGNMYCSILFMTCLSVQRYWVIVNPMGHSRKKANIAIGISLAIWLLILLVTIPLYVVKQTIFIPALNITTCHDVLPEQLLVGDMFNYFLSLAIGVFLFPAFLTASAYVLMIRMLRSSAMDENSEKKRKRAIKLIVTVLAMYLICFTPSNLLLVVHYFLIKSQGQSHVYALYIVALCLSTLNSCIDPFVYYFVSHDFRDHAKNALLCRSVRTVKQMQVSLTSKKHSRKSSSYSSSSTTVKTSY
Method in brief: (§1)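 HT-29 cells plated overnight at 37 °C in 1% FBS/McCoy's, loaded with calcium 5 dye (45 min 37 °C, 15 min r.t.), then preincubated with compounds 30 min at r.t. before a fixed activator challenge. Intracellular Ca2+ read by FLIPR Tetra; a first read checks compound-alone activation.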

PAR2 (HT-29 cells) [2] = molecular target: T1, PAR2 (HT-29 cells); test: Ca FLIPR TETRA assay, ANTAGONIST mode, activator 3.1 U/mL trypsin; settings: HT-29 cells, activator 3.1 U/mL trypsin
Method in brief: as §1

[3] = system: Thrombin-stimulated Ca2+ response in HT-29 cells; test: Ca FLIPR TETRA assay, ANTAGONIST mode, activator 1 U/mL Thrombin; settings: HT-29 cells, activator 1 U/mL Thrombin
Method in brief: as §1

[4] = system: UTP-stimulated Ca2+ response in HT-29 cells; test: Ca FLIPR TETRA assay, ANTAGONIST mode, activator 0.6 μM UTP; settings: for IC50: HT-29 cells, activator 0.6 μM UTP
Method in brief: as §1

[5] = Method A: maximal concentration of antagonist 0.1, 1 or 2 μM
[6] = maximal antagonist concentration per Method (A: 0.1, 1 or 2 μM; B: 50 μM)

Structure (SMILES) | IC50 (PAR2 (HT-29 cells) [1]; [5]) [nM] | IC50 (PAR2 (HT-29 cells) [2]; [5]) [nM] | IC50 ([3]; Homo sapiens) [nM] | IC50 ([4]; Homo sapiens) [nM] | IC50 (PAR2 (HT-29 cells) [1]; [6]) [nM] | IC50 (PAR2 (HT-29 cells) [2]; [6]) [nM] | IC50 [3] [nM] | IC50 [4] [nM] | inhibition at 50 µM ([4]; Homo sapiens, HT-29, @ 50 (μM)) [%]
CC(C)(C)c1cc(-c2ccc(Cl)cc2)nc2cc(C(=O)N3CCN(C(=O)[C@H]4CC[C@@](C)(C(=O)O)CC4)CC3(C)C)oc12 [Example I-423] | 0.4 | 0.7 | > 2000 | > 2000 |  |  |  |  | 
CC(C)(C)c1cc(N2CCC[C@H]2C(F)(F)F)nc2cc(C(=O)N3CCN(C(=O)[C@H]4C[C@](C)(O)C4)CC3(C)C)oc12 [Example I-434] | 26 | 75 | > 2000 | > 2000 |  |  |  |  | 
CC#CC(=O)N1CCN(C(=O)c2cc3nc(-c4ccc(F)cc4)cc(C(C)C)c3o2)C(C)(C)C1 [Example I-20] |  |  | 7100 | 1500 | 11 | 10 |  |  | 
CC(C)(C)c1cc(-c2ccc(C(F)(F)F)cc2)nc2cc(C(=O)N3CCNC(=O)C3(C)C)oc12 [Example I-156] |  |  | > 1000 | > 1000 | 18 | 26 |  |  | 
CC1(C)CCC(c2cc(C(C)(C)C)c3oc(C(=O)N4CCN(c5ccc(-c6nnn[nH]6)cn5)CC4(C)C)cc3n2)CC1 [Example I-539] | 1.5 | 2.2 |  |  |  |  | > 2000 | > 2000 | 
CC(C)c1cc(-c2ccc(F)cc2)nc2cc(C(=O)N3CCN(C(=O)C(C)(C)F)CC3(C)C)oc12 [Example I-16] |  |  | 6900 |  | 7.2 | 6.8 |  |  | 61
CC(C)[C@@H](CC(=O)N1CCN(C(=O)c2cc3nc(-c4ccc(Cl)c(F)c4)cc(C(C)(C)C)c3o2)C(C)(C)C1)C(=O)O [Example I-321] | 0.1 | 0.1 | > 2000 | > 2000 |  |  |  |  | 
CC(C)(C)c1cc(C2CCC(F)(F)CC2)nc2cc(C(=O)N3CCN(C(=O)CNS(C)(=O)=O)C(=O)C3(C)C)oc12 [Example I-222] |  |  |  |  | 275 | 730 | > 2000 | > 2000 | 
CC[C@H](O)C(=O)N1CCN(C(=O)c2cc3nc(-c4ccc(F)cc4)cc(C4(C)CC4)c3o2)C(C)(C)C1 [Example I-59] |  |  | 15000 | 15000 | 21 | 49 |  |  | 
CC(C)(C)c1cc(-c2ccc(Cl)c(F)c2)nc2cc(C(=O)N3CCN(C(=O)[C@@H]4CC[C@@H]4C(=O)O)CC3(C)C)oc12 [Example I-543] | 0.6 | 0.8 | > 2000 | > 2000 |  |  |  |  | 
CO[C@@H](C(=O)N1CCN(C(=O)c2cc3nc(-c4ccc(F)cc4)cc(C(C)C)c3o2)C(C)(C)C1)c1ccccc1 [Example I-66] |  |  | > 50000 | > 50000 | 13 | 15 |  |  | 
Cc1nnc(C(=O)N2CCN(C(=O)c3cc4nc(-c5ccc(F)cc5)cc(C(C)(C)C)c4o3)C(C)(C)C2)[nH]1 [Example I-160] |  |  | > 1000 | > 1000 | 1.6 | 3.1 |  |  | 
CC(C)c1cc(-c2ccc(F)cc2)nc2cc(C(=O)N3CCN(C(=O)[C@H](O)C(C)C)CC3(C)C)oc12 [Example I-74] |  |  | 11000 | 13000 | 5.3 | 7.7 |  |  | 
CC(C)(C)c1cc(-c2ccc(Cl)cc2)nc2cc(C(=O)N3CCN(c4cccc(-c5nnn[nH]5)n4)CC3(C)C)oc12 [Example I-350] | 0.08 | 0.3 | > 2000 | > 2000 |  |  |  |  | 
CC(C)c1cc(-c2ccc(F)cc2)nc2cc(C(=O)N3CCN(C(=O)[C@H]4C[C@](O)(C(F)(F)F)C4)CC3(C)C)oc12 [Example I-134] |  |  | > 1000 | > 1000 | 0.6 | 0.9 |  |  | 
Cc1n[nH]c(C(=O)N2CCN(C(=O)c3cc4nc(C5CCC(C)(C)CC5)cc(C(C)(C)C)c4o3)C(C)(C)C2)n1 [Example I-227] |  |  | > 2000 | > 2000 | 0.8 | 1.2 |  |  | 

Structure (SMILES) | IC50 (PAR2 (HT-29 cells) [1]; [5]) [nM] | IC50 (PAR2 (HT-29 cells) [2]; [5]) [nM] | IC50 ([3]; Homo sapiens) [nM] | IC50 ([4]; Homo sapiens) [nM] | IC50 (PAR2 (HT-29 cells) [1]; [6]) [nM] | IC50 (PAR2 (HT-29 cells) [2]; [6]) [nM] | IC50 [3] [nM] | IC50 [4] [nM] | inhibition at 50 µM ([4]; Homo sapiens, HT-29, @ 50 (μM)) [%]
[2H]C([2H])([2H])N1CCN(C(=O)c2cc3nc(-c4ccc(Cl)c(F)c4)cc(C(C)(C)C)c3o2)C(C)(C)C1=O [Example I-237] |  |  | > 2000 | > 2000 | 1.8 | 2.4 |  |  | 
CC(C)(C)c1cc(-c2ccc(Cl)cc2)nc2cc(C(=O)N3CCN(C(=O)[C@@H]4CCCC[C@H]4C(=O)O)CC3(C)C)oc12 [Example I-511] | 43 | 49.5 | > 2000 | > 2000 |  |  |  |  | 
CC(C)(C)c1cc(-c2ccc(Cl)c(F)c2)nc2cc(C(=O)N3CCN(S(C)(=O)=O)C(=O)C3(C)C)oc12 [Example I-353] | 38 | 34 | > 2000 | > 2000 |  |  |  |  | 
CC(C)(C)c1cc(-c2ccc(Cl)c(F)c2)nc2cc(C(=O)N3CCN(c4cccc(-c5nnn[nH]5)n4)CC3(C)C)oc12 [Example I-344] | 0.1 | 0.2 | > 2000 | > 2000 |  |  |  |  | 
CCC(CC)c1cc(-c2ccc(F)cc2)nc2cc(C(=O)N3CCN(C#N)C(=O)C3(C)C)oc12 [Example I-302] | 14 | 19.5 | > 2000 | > 2000 |  |  |  |  | 
CC(C)(C)c1cc(-c2ccc(Cl)c(F)c2)nc2cc(C(=O)N3CCN(S(=O)(=O)NC4CC4)CC3(C)C)oc12 [Example I-542] | 32 | 28 | > 2000 | > 2000 |  |  |  |  | 
CC(C)c1cc(-c2ccc(F)cc2)nc2cc(C(=O)N3CCN(C(=O)[C@H](O)CC(C)(C)C)[C@@H](C)C3)oc12 [Example I-90] |  |  | > 50000 | 42000 | 2.6 | 7.2 |  |  | 
CCC(C)c1cc(-c2ccc(F)cc2)nc2cc(C(=O)N3CCNC(=O)C3(C)C)oc12 (stereo not shown) [Example I-202] |  |  | > 1000 | > 1000 | 5 | 5 |  |  | 
CC(C)(C)c1cc(-c2ccc(Cl)c(F)c2)nc2cc(C(=O)N3CCN(C(=O)CC4(C(=O)O)CCOCC4)CC3(C)C)oc12 [Example I-497] | 2.2 | 2.2 | > 2000 | > 2000 |  |  |  |  | 
Cc1oc(C2CCN(C(=O)c3cc4nc(C5CCC(C)(C)CC5)cc(C(C)(C)C)c4o3)C(C)(C)C2)nc1C(=O)O (stereo not shown) [Example I-425] | 0.3 | 0.4 |  |  |  |  | > 2000 | > 2000 | 
CC(C)(C)c1cc(-c2ccc(Cl)c(F)c2)nc2cc(C(=O)N3CCN(c4cn[nH]c4)C(=O)C3(C)C)oc12 [Example I-260] |  |  | > 2000 | > 2000 | 3.3 | 4.4 |  |  | 
CC(C)(C)c1cc(-c2ccc(Cl)c(F)c2)nc2cc(C(=O)N3CCC(C(=O)[C@H]4CC[C@@](C)(C(=O)O)CC4)CC3(C)C)oc12 (stereo partly shown) [Example I-422] | 0.2 | 0.3 |  |  |  |  | 2000 | 1500 | 
CC(C)c1cc(-c2ccc(F)cc2)nc2cc(C(=O)N3CCN(C(=O)c4ccnn4C)CC3(C)C)oc12 [Example I-139] |  |  | > 1000 | > 1000 | 24 | 33 |  |  | 
Cc1ccc(N2CCN(C(=O)c3cc4nc(-c5ccc(Cl)cc5)cc(C(C)(C)C)c4o3)C(C)(C)C2=O)nc1C(=O)O [Example I-495] | 13 | 15 | > 2000 | > 2000 |  |  |  |  | 
Cc1cc(N2CCN(C(=O)c3cc4nc(-c5ccc(F)cc5)cc(C(C)(C)C)c4o3)C(C)(C)C2=O)[nH]n1 [Example I-248] |  |  | > 2000 | > 2000 | 11 | 41 |  |  | 
